Literature values as cited in PMC9598925, “Synthetic Amphipathic β-Sheet Temporin-Derived Peptide with Dual Antibacterial and Anti-Inflammatory Activities” (Antibiotics, 2022).
Like-named read-outs stand apart in the source and are kept apart here.

What was measured:
[1] = test system: J774A.1 murine macrophage cells; conditions: highest concentration of 25 μM; previous work of the authors; cited from earlier work
[2] = LUVs mimicking Gram-positive and Gram-negative membranes; cited from earlier work
Description: The molecular conformation of [Nle^1, DLeu^9, DLys^10]TL was investigated by circular dichroism (CD) spectroscopy both in LUVs made of DOPG/CL and DOPG/DOPE/CL (Figure 3, panel A). […] In contrast, the introduction of Nle induced changes in molecular conformation, determining the formation of β-aggregates.

S. aureus ATCC 25923 = conditions: lead peptide, previous works ref 27, 41; cited from earlier work
Description: (§1) Table 2 MICs values of peptide [Nle^1, DLeu^9, DLys^10]TL in comparison with [DLeu^9, DLys^10]TL on selected Gram-positive and Gram-negative strains. | column: MIC Values (μM) / [DLeu^9, DLys^10]TL *

P. aeruginosa ATCC 27853 = conditions: lead peptide, previous works ref 27, 41; cited from earlier work
Description: as §1

[3] = test system: S. epidermidis ATCC 12228; conditions: lead peptide, previous works ref 27, 41; cited from earlier work
Description: as §1

A. baumannii ATCC 19606 = conditions: lead peptide, previous works ref 27, 41; cited from earlier work
Description: as §1

E. coli ATCC 25922 = conditions: lead peptide, previous works ref 27, 41; cited from earlier work
Description: as §1

[4] = test system: K. pneumoniae ATCC BAA-1705; conditions: lead peptide, previous works ref 27, 41; cited from earlier work
Description: as §1

B. megaterium Bm11 = conditions: lead peptide, previous works ref 27, 41; cited from earlier work
Description: as §1

[5] = 10 μM peptide; LUVs DOPG/CL, ANTS/DPX; cited from earlier work
Description: In this study, we evaluated the membranolytic activity of analogue [Nle^1, DLeu^9, DLys^10]TL in presence of LUVs mimicking Gram-positive and Gram-negative membranes by using ANTS/DPX leakage assay. […] Indeed, after the treatment with 10 μM of [Nle^1, DLeu^9, DLys^10]TL, we observed ~60% of LUVs leakage in com ...

[6] = test system: zymosan-induced peritonitis; conditions: cited from earlier work
[7] = LUVs DOPG/CL, cited from earlier work
Description: LUVs composed of DOPG/CL (58/42 ratio in moles) and DOPG/DOPE/CL ([…] ratio in moles) were used to mimic Gram-positive and Gram-negative cell membranes, respectively. LUVs were titrated with different peptide concentrations of 5, 10, 15, […], 30, and 50 μM. […] In contrast, the peptide [DLeu^9, DLys^10]TL progressively oligomerized in LUVs (DOPG/CL) as described in Bellavita et al.; in fact, it was partially aggr ...

HaCaT cells = conditions: highest concentration of 25 μM; previous work of the authors; cited from earlier work
[8] = range of concentrations 1 μM–200 μM; cited from earlier work
Description: The impact of Nle on the aggregation propensity was studied in solution and in presence of large unilamellar vesicles (LUVs) mimicking Gram-positive and Gram-negative membranes. The aggregation in aqueous solution was monitored using Nile Red (NR) as a fluorescent probe. […] The introduction of the Nle residue conferred to peptide [Nle^1, DLeu^9, DLys^10]TL a low propensity to aggregate in aqueous solution as shown ...

## FVPWFSKFlkRIL [[DLeu^9, DLys^10]TL]
[1]
  cytotoxicity on murine macrophages: not cytotoxic
[2]
  molecular conformation (CD): helical aggregates
S. aureus ATCC 25923
  MIC: 6.25 µM
P. aeruginosa ATCC 27853
  MIC: 12.5 µM
[3]
  MIC: 3.12 µM
A. baumannii ATCC 19606
  MIC: 6.25 µM
E. coli ATCC 25922
  MIC: 12.5 µM
[4]
  MIC: 12.5 µM
B. megaterium Bm11
  MIC: 3.12 µM
[5]
  LUVs leakage: ~ 23%
[6]
  anti-inflammatory activity in vivo: significant anti-inflammatory activity
  level of pro-inflammatory cytokines IL-6, MCP-1 and TNF-α: reduced the level of pro-inflammatory cytokines
[7]; 20 μM peptide
  aggregation (ThT): ~ 56%
[7]; 50 μM peptide
  aggregation (ThT): completely aggregated
HaCaT cells
  cytotoxicity on human keratinocytes: not cytotoxic
[8]
  aggregation in solution: unable to aggregate in solution
